Experimental data published in patent US20250041294A1, “Synergistic compositions for use in the treatment of cancer” (Sartar Therapeutics Oy, priority 2021, published 2025).

How the values were obtained:
Format in all cases: cell-based
GIST882 cell line = test: High throughput drug sensitivity and resistance test (CellTiter-Glo, 72 hours); settings: drug combined with BAY2666605 (40 nM) minus drug alone
Procedure: High throughput drug sensitivity and resistance test. […] In addition, same compounds were investigated together with anagrelide hydrochloride (100 nM) treatment in the PDE3A low expressing cell lines SA4 and GOT3, and with BAY2666605 (40 nM) in all PDE3A-positive cell lines GIST882, SA4 and GOT3. […] A cell viability was measured after 72 hours using CellTiter-Glo Cell Viability assay (Promega Inc.) and PHERAstar FS plate reader (BMG Labtech). The data were normalized to negative (0.01% dimethyl sulfoxide only) and positive (100 μmol/L benzethonium chloride) controls.
(§1) A four-parameter logistic dose-response curves were estimated by using the Marquardt-Levenberg algorithm and Breeze analysis platform. Drug responses to the test compounds were measured using the drug sensitivity score (DSS). Drug synergy partners, which were common in investigated cell lines were identified as following: DSS value of a single agent was subtracted from the DSS value of anagrelide-drug combination in single cell lines. […] The analysis was repeated by using BAY2666605 as a PDE3A modulator.

[1] = test system: GIST882, GOT3 and SA4 cell lines; test: High throughput drug sensitivity and resistance test, average over cell lines (BAY2666605 combination); settings: for Average DSS (aDSS): BAY2666605 combination, average of GIST882, SA4 and GOT3, aDSS higher than 3.0 = synergy; for synergy in high-throughput screening (in words): with anagrelide (GOT3, SA4) or BAY2666605 (GIST882, GOT3, SA4)
Procedure: (§2) Cell lines. PDE3A-positive (GIST882, SA4, and GOT3) and PDE3A-negative cell lines (93TT449, 94T778, LPS141, MLS17656-92, MLS402-91, and SW872) were cultured in RPMI Medium 1640 (Gibco) with 5-, 10- or 20% fetal bovine serum (FBS, gibco), 100 U/mL of penicillin, 100 […] and 0.03 mg/mL of L-glutamine (Pen Strep Glut, Gibco, 10378-016) in a humidified, 5% CO2 atmosphere at 37° C.
(§3) High throughput drug sensitivity and resistance test. A sensitivity and resistance of cancer cell lines to 528 compounds were investigated in 9 cell lines (GIST882, SA4, GOT3, 93TT449, 94T778, LPS141, MLS17656-92, MLS402-91, and SW872). In addition, same compounds were investigated together with anagrelide hydrochloride (100 nM) treatment in the PDE3A low expressing cell lines SA4 and GOT3, and with BAY2666605 (40 nM) in all PDE3A-positive cell lines GIST882, SA4 and GOT3. The compounds were dissolved in 100% dimethyl sulfoxide or water and plated in 10-fold dilutions covering a 10,000-fold concentration range on flat clear bottom 384-well microplates as described in detail earlier (Pulkka O P, et al 2019). A cell viability was measured after 72 hours using CellTiter-Glo Cell Viability assay (Promega Inc.) and PHERAstar FS plate reader (BMG Labtech). The data were normalized to negative (0.01% dimethyl sulfoxide only) and positive (100 μmol/L benzethonium chloride) controls.
as §1

GOT3 and SA4 cell lines = test: High throughput drug sensitivity and resistance test, average over cell lines (anagrelide combination); settings: anagrelide combination, average of SA4 and GOT3; aDSS higher than 3.0 = synergy
Procedure: as §2, §3, §1

GOT3 cell line = test: High throughput drug sensitivity and resistance test (CellTiter-Glo, 72 hours); settings: GOT3; for GOT3 cell line: DSS(combo (BAY2666605))-DSS(drug): drug combined with BAY2666605 (40 nM) minus drug alone; for GOT3 cell line: DSS(combo (anagrelide))-DSS(drug): drug combined with anagrelide hydrochloride (100 nM) minus drug alone
Procedure: as §2, §3, §1

SA4 cell line = test: as above; settings: SA4; for SA4 cell line: DSS(combo (BAY2666605))-DSS(drug): drug combined with BAY2666605 (40 nM) minus drug alone; for SA4 cell line: DSS(combo (anagrelide))-DSS(drug): drug combined with anagrelide hydrochloride (100 nM) minus drug alone
Procedure: as §2, §3, §1

SMILES | GIST882 cell line: DSS(combo (BAY2666605))-DSS(drug) (GIST882 cell line) | Average DSS (aDSS) [1] | synergy in high-throughput screening (in words) [1] | Average DSS (aDSS) (GOT3 and SA4 cell lines) | GOT3 cell line: DSS(combo (BAY2666605))-DSS(drug) (GOT3 cell line) | GOT3 cell line: DSS(combo (anagrelide))-DSS(drug) (GOT3 cell line) | SA4 cell line: DSS(combo (BAY2666605))-DSS(drug) (SA4 cell line) | SA4 cell line: DSS(combo (anagrelide))-DSS(drug) (SA4 cell line)
CN(C)Cc1c(C(=O)NCCOc2ccc(C(=O)NO)cc2)oc2ccccc12 [Abexinostat, abexinostat] | 4.2 | 6.2 | synergistic | 4.9 | 2.1 | −1.1 | 12.3 | 10.9
O=C(/C=C/c1cccc(S(=O)(=O)Nc2ccccc2)c1)NO [Belinostat, belinostat] | −0.3 | 5.4 | synergistic | 5.55 | 0.8 | 1.1 | 15.8 | 10
CCN(CC)Cc1ccc2cc(COC(=O)Nc3ccc(C(=O)NO)cc3)ccc2c1 [Givinostat, givinostat] | 7.3 | 9.6 | synergistic | 4.65 | 3 | −0.7 | 18.5 | 10
COc1cc(C(=O)O)ccc1NC(=O)[C@@H]1N[C@@H](CC(C)(C)C)[C@](C#N)(c2ccc(Cl)cc2F)[C@H]1c1cccc(Cl)c1F [Idasanutlin, idasanutlin] | 0 | 6.4 | synergistic | 3.75 | −0.5 | −1 | 19.6 | 8.5
CC(=O)c1cnc2ccc(-c3cc(Cl)c(O)c(Cl)c3)nc2c1N[C@H]1CC[C@H](CN(C)C)CC1 [OTS167] | 1.9 | 5.2 | synergistic | 5.55 | 3.2 | 0.6 | 10.5 | 10.5
Cc1[nH]c2ccccc2c1CCNCc1ccc(/C=C/C(=O)NO)cc1 [Panobinostat, panobinostat] | 6.1 | 7.0 | – | 5.6 | 8.2 | −0.5 | 6.7 | 11.7
CCCCc1nc2cc(/C=C/C(=O)NO)ccc2n1CCN(CC)CC [Pracinostat, pracinostat] | 5.7 | 6.4 | synergistic | 6.7 | 1.5 | −1.4 | 12 | 14.8
CO[C@H]1C[C@@H]2CC[C@@H](C)[C@@](O)(O2)C(=O)C(=O)N2CCCC[C@H]2C(=O)O[C@H]([C@H](C)C[C@@H]2CC[C@@H](OP(C)(C)=O)[C@H](OC)C2)CC(=O)[C@H](C)/C=C(\C)[C@@H](O)[C@@H](OC)C(=O)[C@H](C)C[C@H](C)/C=C/C=C/C=C/1C [Ridaforolimus, ridaforolimus] | 0.3 | – | – | 8.8 | −1.9 | 4.4 | 13.7 | 13.2
